Reference: ChEMBL document CHEMBL5137037, “Phage Display Selected Cyclic Peptide Inhibitors of Kallikrein-Related Peptidases 5 and 7 and Their In Vivo Delivery to the Skin” (J Med Chem, 2022)
Values belong to the compound of their own block, whether it stands above or below them. Numbered stars: 1 amine (or outer) side, 2 acyl side, 3 side chain; on linkers, the order of the positions; unused ones are H or OH. Bridge positions count the residues as written; N and C are the ends. Square brackets hold non-standard residues; d marks the D form. Peptide text beside a SMILES is read from it. I, II: the chains in the order shown. * marks the point of attachment. X2 = CN(C)c1ccc2c(c1)[Si](C)(C)C1=CC(=[N+](C)C)C=CC1=C2c1cc(C(=O)*)ccc1C(=O)O; X1 = O=C(O)c1cc(C(=O)*)ccc1-c1c2ccc(=O)cc-2oc2cc(O)ccc12; X3 = O=C(C[C@H](CCO)C(=O)[*:2])[C@H](Cc1ccc(O)cc1)N[*:1]; Palmitoyl = CCCCCCCCCCCCCCCC(=O)*; CH2COCH2 = O=C(C[*:1])C[*:2]; hSer = N[C@@H](CCO)C(=O)O; AEEA = NCCOCCOCC(=O)O

What was measured:
[1] = Stability of the compound in human plasma assessed as half life […] by LC-MS analysis; assay type: ADME, cell-free
[2] = Plasma concentration in C57BL/6J mouse at 6.2 mg/kg, ip measured upto 24 hrs by RP-HPLC analysis; assay type: ADME, organism-based
[3] = Drug degradation in C57BL/6J mouse at 6.2 mg/kg, iv measured at 21 to 22 mins by RP-HPLC analysis; assay type: ADME, organism-based; settings: in vivo, time 21-22 min
[4] = Half life in C57BL/6J mouse at 6.2 mg/kg, iv by RP-HPLC analysis; assay type: ADME, organism-based; settings: in vivo
[5] = Drug uptake in C57BL/6J mouse skin epidermis assessed as half life at 3.2 mg/kg, iv by fluorescence imaging analysis; assay type: ADME, organism-based; settings: time 8 hrs
Kallikrein-5 = target: T1, Kallikrein-5 (Homo sapiens, UniProt Q9Y337); experiment: Inhibition of C-terminal poly-His-tagged human recombinant KLK5 (30 to 293 residues) transfected in CHO cells assessed as inhibition constant using Boc-VPR-AMC as fluorogenic substrate incubated for 30 mins by fluorescence plate reader assay; assay type: cell-based
T1 sequence (Q9Y337 whole entry): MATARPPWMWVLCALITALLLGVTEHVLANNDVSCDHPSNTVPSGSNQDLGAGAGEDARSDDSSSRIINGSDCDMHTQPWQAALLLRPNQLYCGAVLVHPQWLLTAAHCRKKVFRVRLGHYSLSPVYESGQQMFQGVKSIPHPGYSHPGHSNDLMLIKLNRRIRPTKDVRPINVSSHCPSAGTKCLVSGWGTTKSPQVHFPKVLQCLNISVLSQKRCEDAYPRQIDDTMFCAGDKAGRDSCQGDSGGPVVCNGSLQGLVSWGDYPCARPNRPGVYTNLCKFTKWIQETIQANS

Albumin [6] = target: Albumin (Homo sapiens, UniProt P02768); experiment: Binding affinity to human serum albumin by fluorescence polarization assay
Albumin [7] = target: Albumin (Mus musculus, UniProt P07724); experiment: Binding affinity to mouse serum albumin by fluorescence polarization assay
Kallikrein-7 = Kallikrein-7 (Mus musculus, UniProt Q91VE3); experiment: Inhibition of mouse KLK7 assessed as inhibition constant; set-up: species or system CHO
[8] = Half life in C57BL/6J mouse at 6.2 mg/kg, ip by RP-HPLC analysis; assay type: ADME, organism-based; settings: in vivo
[9] = Drug uptake in C57BL/6J mouse skin at 12.4 mg/kg, ip measured after 48 hrs by fluorescence imaging analysis; assay type: ADME, organism-based, Skin of body; settings: in vivo
[10] = Half life in C57BL/6J mouse at 6.2 mg/kg, sc by RP-HPLC analysis; assay type: ADME, organism-based; settings: in vivo
[11] = Drug degradation in C57BL/6J mouse at 6.2 mg/kg, ip measured after 18 to 28 mins by RP-HPLC analysis; assay type: ADME, organism-based; settings: in vivo, time 18-28 min
[12] = Drug degradation in C57BL/6J mouse at 6.2 mg/kg, sc measured after 18 to 28 mins by RP-HPLC analysis; assay type: ADME, organism-based; settings: in vivo, time 18-28 min
[13] = Drug uptake in C57BL/6J mouse skin epidermis at 6.2 mg/kg, iv measured after 8 hrs by fluorescence imaging analysis; assay type: ADME, organism-based; settings: in vivo
[14] = Drug uptake in C57BL/6J mouse skin epidermis assessed as half life at 6.4 mg/kg, ip measured after 8 hrs by DAPI staining based fluorescence microscope assay; assay type: ADME, organism-based; settings: in vivo

Sequence of Albumin (Mus musculus, UniProt P07724) (P07724 whole entry): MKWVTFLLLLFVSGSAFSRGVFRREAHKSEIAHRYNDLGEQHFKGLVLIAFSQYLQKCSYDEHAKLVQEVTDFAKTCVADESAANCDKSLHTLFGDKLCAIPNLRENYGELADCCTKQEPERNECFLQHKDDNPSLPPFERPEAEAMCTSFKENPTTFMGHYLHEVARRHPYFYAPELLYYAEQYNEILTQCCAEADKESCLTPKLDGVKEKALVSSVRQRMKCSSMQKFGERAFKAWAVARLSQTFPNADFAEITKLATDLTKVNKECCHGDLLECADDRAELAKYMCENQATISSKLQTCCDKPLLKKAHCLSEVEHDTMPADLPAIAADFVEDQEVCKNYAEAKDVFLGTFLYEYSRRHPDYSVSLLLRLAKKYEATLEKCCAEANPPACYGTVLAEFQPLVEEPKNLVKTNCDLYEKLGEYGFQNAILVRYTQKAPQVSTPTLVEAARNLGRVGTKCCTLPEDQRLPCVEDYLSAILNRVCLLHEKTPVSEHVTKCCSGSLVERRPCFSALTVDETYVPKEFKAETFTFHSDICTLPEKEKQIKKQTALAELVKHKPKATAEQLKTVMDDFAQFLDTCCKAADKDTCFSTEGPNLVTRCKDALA
Sequence of Albumin (Homo sapiens, UniProt P02768) (P02768 whole entry): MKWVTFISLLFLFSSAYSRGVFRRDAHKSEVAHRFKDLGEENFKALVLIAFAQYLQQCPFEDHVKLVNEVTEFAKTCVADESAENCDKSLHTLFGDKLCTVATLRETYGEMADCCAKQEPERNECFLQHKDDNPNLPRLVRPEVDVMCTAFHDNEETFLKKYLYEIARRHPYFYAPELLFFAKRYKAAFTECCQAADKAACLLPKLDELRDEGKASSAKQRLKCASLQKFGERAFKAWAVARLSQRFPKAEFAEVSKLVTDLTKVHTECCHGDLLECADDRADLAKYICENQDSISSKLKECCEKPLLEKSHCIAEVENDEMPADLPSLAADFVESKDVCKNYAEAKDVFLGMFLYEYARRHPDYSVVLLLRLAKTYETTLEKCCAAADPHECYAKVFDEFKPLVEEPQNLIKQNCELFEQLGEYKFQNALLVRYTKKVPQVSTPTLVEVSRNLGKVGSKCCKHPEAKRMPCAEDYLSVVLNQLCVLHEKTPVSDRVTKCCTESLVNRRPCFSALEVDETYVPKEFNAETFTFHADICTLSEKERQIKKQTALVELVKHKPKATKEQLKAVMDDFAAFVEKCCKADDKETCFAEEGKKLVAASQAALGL
Sequence of Kallikrein-7 (Q91VE3 whole entry): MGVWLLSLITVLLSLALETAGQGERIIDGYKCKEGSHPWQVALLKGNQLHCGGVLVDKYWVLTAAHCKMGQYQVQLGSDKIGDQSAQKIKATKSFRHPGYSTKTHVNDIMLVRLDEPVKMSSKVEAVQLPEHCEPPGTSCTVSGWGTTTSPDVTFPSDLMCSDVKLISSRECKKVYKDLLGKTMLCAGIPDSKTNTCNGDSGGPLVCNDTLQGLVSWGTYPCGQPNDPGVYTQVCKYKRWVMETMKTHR

- half-life [1]: > 96 h
- concentration at 24 h [2]: 20 µM
- Stability [3]: Unstable
- half-life [4]: 6.2 h
SMILES: CCCCCCCCCCCCCCCC(=O)NCCCC[C@H](NC(=O)[C@H](CCC(=O)O)NC(=O)[C@@H](Cc1ccc(O)cc1)NC(=O)[C@H](CCC(=O)O)NC(=O)COCCOCCNC(=O)c1ccc(-c2c3ccc(=O)cc-3oc3cc(O)ccc23)c(C(=O)O)c1)C(=O)N[C@@H](CCC(=O)O)C(=O)N[C@@H](Cc1ccc(O)cc1)C(=O)N[C@@H](CCC(=O)O)C(=O)NCCOCCOCC(=O)NCCCC[C@H](NC(=O)CNC(=O)[C@@H]1CSCC(=O)CSC[C@H](NC(=O)[C@@H]2CCCN2)C(=O)N[C@@H](CC(C)C)C(=O)N[C@@H](Cc2ccc(O)cc2)C(=O)N[C@@H](CCCC)C(=O)N[C@@H](C)C(=O)N[C@@H](CCCCNC(=N)N)C(=O)N1)C(=O)NCC(N)=O

- half-life [5]: 0.64 h
SMILES: CCCCCCCCCCCCCCCC(=O)NCCCC[C@H](NC(=O)[C@@H](CCO)CC(=O)[C@H](Cc1ccc(O)cc1)NC(=O)[C@H](CCO)NC(=O)COCCOCCNC(=O)c1ccc(-c2c3ccc(=O)cc-3oc3cc(O)ccc23)c(C(=O)O)c1)C(=O)N[C@@H](CCO)C(=O)N[C@@H](Cc1ccc(O)cc1)C(=O)N[C@@H](CCC(=O)O)C(=O)NCCOCCOCC(=O)NCCCC[C@H](NC(=O)CNC(=O)[C@@H]1CSCC(=O)CSC[C@H](NC(=O)CNC(C)=O)C(=O)N[C@@H]([C@@H](C)O)C(=O)N[C@@H](CCCNC(=N)N)C(=O)N[C@@H](CCC(N)=O)C(=O)N[C@@H](Cc2ccc(O)cc2)C(=O)N2CCC[C@H]2C(=O)N1)C(=O)NCC(N)=O (I: Ac-GCTRQYPCGKG-NH2 / II: {X1-AEEA}-[hSer][X3]K(Palmitoyl)[hSer]YE[AEEA]; linker I:2-I:8 via CH2COCH2; amide I:10-II:C)

- Ki (Kallikrein-5): 1.2 nM
- half-life [1]: 90 h
- Kd (Albumin [6]): 119 nM
- Kd (Albumin [7]): 7000 nM
- Ki (Kallikrein-7): 4.1 nM
- concentration at 24 h [2]: 20 µM
- half-life [8]: 5.1 h
- Drug uptake [9]: Active
- half-life [10]: 5.8 h
- Stability [11]: Unstable
- Stability [3]: Unstable
- Stability [12]: Unstable
- Drug uptake [13]: Active
- half-life [4]: 4.4 h
SMILES: CCCCCCCCCCCCCCCC(=O)NCCCC[C@H](NC(=O)[C@H](CCC(=O)O)NC(=O)[C@H](Cc1ccc(O)cc1)NC(=O)[C@H](CCC(=O)O)NC(=O)COCCOCCNC(=O)c1ccc(-c2c3ccc(=O)cc-3oc3cc(O)ccc23)c(C(=O)O)c1)C(=O)N[C@@H](CCC(=O)O)C(=O)N[C@@H](Cc1ccc(O)cc1)C(=O)N[C@@H](CCC(=O)O)C(=O)NCCOCCOCC(=O)NCCCC[C@H](NC(=O)CNC(=O)[C@@H]1CSCC(=O)CSC[C@H](NC(=O)CN)C(=O)N[C@@H]([C@@H](C)O)C(=O)N[C@@H](CCCNC(=N)N)C(=O)N[C@@H](CCC(N)=O)C(=O)N[C@@H](Cc2ccc(O)cc2)C(=O)N2CCC[C@H]2C(=O)N1)C(=O)NCC(N)=O

- Drug uptake [14]: Active
SMILES: CCCCCCCCCCCCCCCC(=O)NCCCC[C@H](NC(=O)[C@@H](CCO)CC(=O)[C@H](Cc1ccc(O)cc1)NC(=O)[C@H](CCO)NC(=O)COCCOCCNC(=O)c1ccc(C(=O)O)c(C2=C3C=CC(=[N+](C)C)C=C3[Si](C)(C)c3cc(N(C)C)ccc32)c1)C(=O)N[C@@H](CCO)C(=O)N[C@@H](Cc1ccc(O)cc1)C(=O)N[C@@H](CCC(=O)O)C(=O)NCCOCCOCC(=O)NCCCC[C@H](NC(=O)CNC(=O)[C@@H]1CSCC(=O)CSC[C@H](NC(=O)CNC(C)=O)C(=O)N[C@@H]([C@@H](C)O)C(=O)N[C@@H](CCCNC(=N)N)C(=O)N[C@@H](CCC(N)=O)C(=O)N[C@@H](Cc2ccc(O)cc2)C(=O)N2CCC[C@H]2C(=O)N1)C(=O)NCC(N)=O (I: Ac-GCTRQYPCGKG-NH2 / II: {X2-AEEA}-[hSer][X3]K(Palmitoyl)[hSer]YE[AEEA]; linker I:2-I:8 via CH2COCH2; amide I:10-II:C)
